Laboratory results as given in ChEMBL document CHEMBL1130329, “Coumarin-based inhibitors of HIV integrase” (J Med Chem, 1997).
Several values for one entry are separate records, joined by “and”; a condition that tells them apart may be missing. Identical values can stand only once.

Experiments:
[1] = target: T1, Human immunodeficiency virus type 1 integrase (Human immunodeficiency virus 1, UniProt Q7ZJM1); assay: Integration of DNA by HIV -1 integrase
[2] = target: T1, Human immunodeficiency virus type 1 integrase; assay: (§1) Inhibitory activity against 3'-processing of DNA by HIV-1 integrase; format: functional
[3] = Delta Logarithm of Partition Coefficient value was determined.; details: octanol/water
[4] = target: T1, Human immunodeficiency virus type 1 integrase; assay: as §1
[5] = target: T1, Human immunodeficiency virus type 1 integrase; assay: Inhibitory activity against 3'-processing of DNA byHIV-1 integrase; format: functional

T1 sequence (Q7ZJM1 whole entry): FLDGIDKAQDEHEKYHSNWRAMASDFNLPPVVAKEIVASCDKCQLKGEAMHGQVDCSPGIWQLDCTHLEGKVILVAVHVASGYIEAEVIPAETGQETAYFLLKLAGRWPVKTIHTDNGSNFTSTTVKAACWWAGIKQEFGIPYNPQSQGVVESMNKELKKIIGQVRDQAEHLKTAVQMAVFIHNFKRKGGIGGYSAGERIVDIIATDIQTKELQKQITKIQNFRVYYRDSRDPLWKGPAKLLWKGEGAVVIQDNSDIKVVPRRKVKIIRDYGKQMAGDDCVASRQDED

| Compound | IC50 [1] | IC50 [2] | delta Log P [3] | IC50 [4] [µM] | IC50 [5] [µM] |
| --- | --- | --- | --- | --- | --- |
| O=c1c(C(c2ccc(O)cc2)c2c(O)oc3ccccc3c2=O)c(O)oc2ccccc12 | 75 µM and 74 µM | 141 µM and 128 µM and 130 µM | 1.1 |  |  |
| O=c1c(C(c2ccc(/C=C/c3ccccc3)cc2)c2c(O)oc3ccccc3c2=O)c(O)oc2ccccc12 | 3.7 µM and 9.5 µM | 5.5 µM and 9.2 µM and 7 µM | 4.14 |  |  |
| O=c1c(C(c2ccc(C(c3c(O)oc4ccccc4c3=O)c3c(O)oc4ccccc4c3=O)cc2)c2c(O)oc3ccccc3c2=O)c(O)oc2ccccc12 |  | 2 µM | 2.84 |  |  |
| O=c1c(C(c2ccc3ccccc3c2)c2c(O)oc3cc(O)ccc3c2=O)c(O)oc2cc(O)ccc12 | 3.55 µM | 4.2 µM |  |  |  |
| O=c1c(C(c2ccco2)c2c(O)oc3ccccc3c2=O)c(O)oc2ccccc12 | 133 µM and 122 µM | 75 µM and 34 µM and 54 µM | 0.45 |  |  |
| O=c1c(C(c2ccccc2)c2c(O)oc3cc(O)ccc3c2=O)c(O)oc2cc(O)ccc12 | 22.2 µM | 17.2 µM |  |  |  |
| O=c1c(C(c2ccc3c(c2)Cc2ccccc2-3)c2c(O)oc3ccccc3c2=O)c(O)oc2ccccc12 | 9.5 µM and 7.8 µM | 10 µM (2×) and 11 µM | 3.4 |  |  |
| O=c1c(C(c2cccnc2)c2c(O)oc3cc(O)ccc3c2=O)c(O)oc2cc(O)ccc12 | 25 µM and 97 µM | 62 µM and 116 µM |  | 89 |  |
| CN(C)c1ccc(C(c2c(O)oc3ccccc3c2=O)c2c(O)oc3ccccc3c2=O)cc1 | 50 µM and 88 µM | 100 µM and 190 µM | 1.88 |  | 88 |
| O=c1c(Cc2c(O)oc3cc(O)ccc3c2=O)c(O)oc2cc(O)ccc12 | 44.9 µM | 46.3 µM |  |  |  |
| O=c1c(C(c2ccccc2)c2c(O)oc3ccccc3c2=O)c(O)oc2ccccc12 | 38.8 µM | 43.4 µM and 43 µM | 1.6 |  |  |
| O=c1c(C(c2ccc(/C=C/c3ccccc3)cc2)c2c(O)oc3cc(O)ccc3c2=O)c(O)oc2cc(O)ccc12 | 1.8 µM |  |  |  |  |
| O=c1c(C(c2cccc(C(c3c(O)oc4ccccc4c3=O)c3c(O)oc4ccccc4c3=O)c2)c2c(O)oc3ccccc3c2=O)c(O)oc2ccccc12 | 1.2 µM and 2 µM | 3 µM and 2.9 µM |  |  |  |
| O=c1c(C(c2ccc3ccccc3c2)c2c(O)oc3ccccc3c2=O)c(O)oc2ccccc12 | 16 µM and 9 µM | 19 µM and 20 µM (2×) | 2.6 |  |  |
| O=c1c(C(c2ccc(C(c3c(O)oc4cc(O)ccc4c3=O)c3c(O)oc4cc(O)ccc4c3=O)cc2)c2c(O)oc3cc(O)ccc3c2=O)c(O)oc2cc(O)ccc12 | 0.33 µM | 0.37 µM |  |  |  |
| O=c1cc(O)c2ccc(O)cc2o1 | 325 µM | 300 µM |  |  |  |
| O=c1oc2ccccc2c(O)c1C1c2ccccc2Oc2c1c(=O)oc1ccccc21 (centres undefined) | 122 µM and 163 µM | 121 µM and 127 µM |  |  |  |

| Compound | IC50 [1] | IC50 [2] | delta Log P [3] | IC50 [4] [µM] | IC50 [5] [µM] |
| --- | --- | --- | --- | --- | --- |
| COc1cc(C(c2c(O)c3ccccc3oc2=O)c2c(O)c3ccccc3oc2=O)ccc1O | 76 µM and 108 µM | 198 µM and 177 µM and 190 µM | 1.05 |  |  |
| O=c1c(Cc2ccccc2Cc2c(O)oc3ccccc3c2=O)c(O)oc2ccccc12 | 20.5 µM and 33.2 µM | 46 µM and 45 µM |  |  |  |
| O=c1c(C(c2ccc(-c3ccccc3)cc2)c2c(O)oc3ccccc3c2=O)c(O)oc2ccccc12 | 13 µM and 28 µM | 14 µM and 16 µM and 15 µM | 3.33 |  |  |
| O=c1c(C(c2cnc3ccccc3c2)c2c(O)oc3ccccc3c2=O)c(O)oc2ccccc12 | 23 µM and 14 µM | 40 µM and 29 µM and 35 µM | 1.6 |  |  |
| O=c1c(C(c2ccc(OCc3ccccc3)cc2)c2c(O)oc3ccccc3c2=O)c(O)oc2ccccc12 | 14 µM and 24 µM | 19 µM and 8.5 µM and 20 µM | 3.06 |  |  |
| O=c1c(C(c2ccc([N+](=O)[O-])cc2)c2c(O)oc3ccccc3c2=O)c(O)oc2ccccc12 | 12 µM and 24 µM | 58 µM and 54 µM | 1.37 |  | 50 |
| O=c1c(C(c2cccs2)c2c(O)oc3ccccc3c2=O)c(O)oc2ccccc12 | 148 µM and 149 µM | 100 µM and 105 µM | 0.86 |  | 110 |
| O=C(O)c1ccc(C(c2c(O)oc3ccccc3c2=O)c2c(O)oc3ccccc3c2=O)cc1 | 54 µM and 49 µM | 66 µM and 48 µM |  |  |  |
| O=c1oc2ccccc2c(O)c1C1c2c(c3ccccc3oc2=O)Oc2c1c(=O)oc1ccccc21 | 22.5 µM | 35.7 µM |  |  |  |
| O=c1c(Cc2ccc(Cc3c(O)oc4ccccc4c3=O)cc2)c(O)oc2ccccc12 | 69.2 µM | 80.6 µM |  |  |  |
| O=c1c(Cc2cccc(Cc3c(O)oc4ccccc4c3=O)c2)c(O)oc2ccccc12 | 11.1 µM and 27.5 µM | 34 µM and 40 µM |  |  |  |
| O=c1c(C(c2ccccn2)c2c(O)oc3cc(O)ccc3c2=O)c(O)oc2cc(O)ccc12 | 49 µM and 70 µM | 94 µM and 84 µM |  | 81 |  |
| O=c1c(C(c2cc(OCc3ccccc3)cc(OCc3ccccc3)c2)c2c(O)oc3ccccc3c2=O)c(O)oc2ccccc12 | 12 µM and 3.7 µM | 8 µM and 11 µM and 10 µM | 5.15 |  |  |
| 3,3'-(Ferrocenomethylene)bis[4-hydroxycoumarin] | 7 µM and 5 µM | 11 µM and 3.6 µM |  |  |  |
| O=c1cc(O)c2ccccc2o1 [4-HYDROXYCOUMARINS] | > 100 µM | > 100 µM |  |  |  |
| O=c1oc2ccccc2c(O)c1Cc1c(O)c2ccccc2oc1=O [DICUMAROL] | > 100 µM | > 300 µM |  |  |  |
